From patent publication US4190666A, “Anti-inflammatory 4,5-diarly-2-(substituted-thio)imidazoles and their corresponding sulfoxides and sulfones” (E. I. Du Pont de Nemours and Company, priority 1978, dated 1980)
Read-outs that look alike come from different tables or passages of the source.

Tests used:
[1] = system: established adjuvant-induced arthritis in rats; assay: Established adjuvant-induced arthritis in rats (therapeutic, paw volume); assay type: in vivo, Charles River Lewis male rats; details: Rattus norvegicus
[2] = system: B lymphocytes in spleen cell suspensions; details: for effect on B lymphocyte proportion / lymphocyte population: arthritic rats
[3] = system: plaque forming (antibody producing) spleen cells of rats with adjuvant-induced arthritis; assay: Modified Jerne spleen cell hemolytic plaque assay; assay type: in vivo, rats (Charles River Lewis); details: for effect on number of plaque forming cells (PFC): arthritic rats
Protocol: MODIFIED JERNE SPLEEN CELL HEMOLYTIC PLAQUE ASSAY
A modification of the technique described by N. K. Jerne and A. A. Nordin (Science, 140, 450, 1963) was used in these studies. Rats (Charles River Lewis) with adjuvant-induced arthritis (and non-arthritic controls) were dosed orally ounce per day with PVA-Acacia vehicle* or compounds in vehicle from day 14 (following adjuvant injection) to day 20. The animals were sensitized with sheep red blood cells (SRBC) (0.2 ml of a 10% suspension=[…]) I.V. on day 17. The SRBC (Microbiological Associates) were washed 3 times in 0.9% sodium chloride solution prior to injection. On day 21 the rats were anesthetized with 1% sodium pentobarbital I.P. and the spleens were removed. Each spleen was placed on a stainless steel screen suspended over a plastic beaker in an ice bath and gently macerated with a glass syringe plunger. The cells were washed through the mesh into the beaker using a pasteur pipette to apply about 10 ml of Eagle's Minimal Essential Medium (MEM) during the maceration process until only fibrous material remained on the screen. Large particles were allowed to settle out for about 5 minutes and about 5 ml of supernatant was transferred to a plastic tube. Dilutions of 1:10 and 1:20 were made in cold MEM.
Plating: 2 ml of 0.7% Agarose (1.4% diluted 1:2 with 2X Eagles MEM) and 0.2 ml of a 10% SRBC suspension were pre-warmed in a 45° C. water bath. 20 Lambda of spleen cell dilution were added, mixed gently and poured into a supporting layer of 2 ml of 1.4% Agarose in a 60×15 mm plastic petri plate. Plates were incubated at 37° C. for 1.5 hours in a humidified incubator. 1.5 ml of guinea pig complement (diluted 1:10 with MEM) was added and incubation was continued for 1 hour longer.
Zones of hemolysis (plaques) per plate were counted without magnification against a diffuse light source. Assuming each plaque to have resulted from hemolysin produced by a single spleen cell, the number of plaque forming cells (PFC) per million spleen cells was calculated for each dilution. The statistical calculations (mean, standard error and "t" test) included the PFC/million count for each dilution of each spleen.

[4] = system: immunologic reactions / rheumatoid arthritis; details: background; cited from earlier work
[5] = system: non-established adjuvant-induced arthritis in rats; assay: Non-established adjuvant-induced arthritis in rats (prevention of development, paw volume); assay type: in vivo, Charles River Lewis male rats; details: for ED50: Rattus norvegicus, read-out: ED50% non-established arthritis; for effectiveness in preventing development of arthritis compared with treating established arthritis: non-established vs established arthritis, rats
Protocol: Non-Established Adjuvant-Induces Arthritis in Rats
A test used primarily to determine the effects of compounds on the immunological reactions involved in the induction process and to prevent the development of arthritis.
Charles River Lewis male rats (130-150 grams) are injected subcutaneously in the plantar area of the right hind paw with 0.1 ml of adjuvant (Difco heat-killed, lyophilized Mycobacterium butyricum suspended in mineral oil 5 mg/ml). 40 Non-arthritic controls are injected with mineral oil. Groups of 20 rats are given single, daily oral doses of compound (in PVA-Acacia vehicle, 10 ml/kg) or vehicle by gavage beginning immediately following paw injection for a total of 14 doses. The paw volume of the uninjected (left) hind paw is measured 24 hours after the last dose using a Ugo Basile Volume differential meter Model 7101. The ED50% decrease from control is determined as described above.

[6] = po, established arthritis, 7 daily doses, ED50% decrease from control paw volume, Tables I-III, read-out: Adjuvant Arthritis (ED50%)
[7] = po, Table V, read-out: ED50% established arthritis
[8] = Table V, oral, 14 daily doses from adjuvant injection

SMILES: COc1ccc2c(c1)c(CC(=O)O)c(C)n2C(=O)c1ccc(Cl)cc1 [Indomethacin, reference compound]
- ED50 ([1]; Table V, oral, read-out: ED50% established arthritis): 0.3 mg/kg
- effect on B lymphocyte proportion / lymphocyte population [2]: had no effect on the lymphocyte population
- mean % B cells ([2]; daily oral dose 0.5 mg/kg): 57%
- effect on number of plaque forming cells (PFC) [3]: had no effect on the number of PFC
- mean plaque forming cells per million spleen cells (N = 20) ([3]; daily oral dose 1.0 mg/kg): 694 cells per million spleen cells
- effect on immunologic reactions in rheumatoid inflammation [4]: have no effect on these immunologic reactions
- ED50 ([5]; po): 3 mg/kg
- effectiveness in preventing development of arthritis compared with treating established arthritis [5]: less effective in preventing the development of arthritis in rats than in treating the inflammation in established arthritis

SMILES: CC(C)Cc1ccc(C(C)C(=O)O)cc1 (centres unmarked) [ibuprofen]
- effect on immunologic reactions in rheumatoid inflammation [4]: have no effect on these immunologic reactions

SMILES: O=S(=O)(c1nc(-c2ccc(Cl)cc2)c(-c2ccccc2)[nH]1)C(F)(F)C(F)F [Example 86, 4(or 5)-(4-chlorophenyl)-5(or 4)-phenyl-2-(1,1,2,2-tetrafluoroethylsulfonyl)imidazole]
- ED50 [1, 6]: 0.065 mg/kg
- mean % B cells ([2]; daily oral dose 0.1 mg/kg): 48%
- mean % B cells ([2]; daily oral dose 1.0 mg/kg): 42%
- mean plaque forming cells per million spleen cells (N = 20) ([3]; daily oral dose 0.07 mg/kg): 412 cells per million spleen cells
- mean plaque forming cells per million spleen cells (N = 20) ([3]; daily oral dose 0.7 mg/kg): 367 cells per million spleen cells

SMILES: CCCCC1C(=O)N(c2ccccc2)N(c2ccccc2)C1=O [Phenylbutazone]
- ED50 [1, 7]: 10 mg/kg
- mean % B cells ([2]; daily oral dose 20 mg/kg): 53%
- effect on immunologic reactions in rheumatoid inflammation [4]: have no effect on these immunologic reactions
- ED50 [5, 8]: 35 mg/kg
- effectiveness in preventing development of arthritis compared with treating established arthritis [5]: less effective in preventing the development of arthritis in rats than in treating the inflammation in established arthritis

SMILES: CC(=O)Oc1ccccc1C(=O)O [aspirin]
- effect on immunologic reactions in rheumatoid inflammation [4]: have no effect on these immunologic reactions

SMILES: FC(F)C(F)(F)Sc1nc(-c2ccc(Cl)cc2)c(-c2ccc(Cl)cc2)[nH]1 [Example 39]
- ED50 [1, 7]: 0.2 mg/kg
- ED50 [1, 6]: 0.3 mg/kg
- mean % B cells ([2]; daily oral dose 0.2 mg/kg, pooled data from 2 experiments (N = 10)): 37%
- mean % B cells ([2]; daily oral dose 2.0 mg/kg, pooled data from 2 experiments (N = 10)): 35%
- mean plaque forming cells per million spleen cells (N = 20) ([3]; daily oral dose 0.1 mg/kg): 788 cells per million spleen cells
- mean plaque forming cells per million spleen cells (N = 20) ([3]; daily oral dose 1.0 mg/kg): 488 cells per million spleen cells
- ED50 [5, 8]: 0.06 mg/kg

SMILES: O=P1(N(CCCl)CCCl)NCCCO1 (centres unmarked) [Cyclophosphamide, reference compound]
- ED50 [1, 7]: 10 mg/kg
- effect on B lymphocyte proportion / lymphocyte population [2]: reduced the B lymphocyte proportion to below normal
- mean % B cells ([2]; daily oral dose 5 mg/kg): 25%
- effect on number of plaque forming cells (PFC) [3]: reduced the PFC far below normal
- mean plaque forming cells per million spleen cells (N = 20) ([3]; daily oral dose 5.0 mg/kg): 25 cells per million spleen cells
- effectiveness in treatment of rheumatoid arthritis [4]: effective in the treatment of rheumatoid arthritis
- toxicity for wide-spread use [4]: too toxic for wide-spread use
- ED50 [5, 8]: 1.5 mg/kg
- effectiveness in preventing development of arthritis compared with treating established arthritis [5]: more effective in preventing the development of arthritis in rats than in treating established arthritis in rats

SMILES: O=S(=O)(c1nc(-c2ccc(F)cc2)c(-c2ccc(F)cc2)[nH]1)C(F)(F)C(F)F [Example 71, 4,5-bis(4-fluorophenyl)-2-(1,1,2,2-tetrafluoroethylsulfonyl)imidazole]
- ED50 [1, 7]: 0.03 mg/kg
- ED50 [1, 6]: 0.025 mg/kg
- mean % B cells ([2]; daily oral dose 0.03 mg/kg, pooled data from 3 experiments (N = 15)): 38%
- mean % B cells ([2]; daily oral dose 0.3 mg/kg, pooled data from 3 experiments (N = 15)): 41%
- mean plaque forming cells per million spleen cells (N = 20) ([3]; daily oral dose 0.03 mg/kg): 499 cells per million spleen cells
- mean plaque forming cells per million spleen cells (N = 20) ([3]; daily oral dose 0.3 mg/kg): 439 cells per million spleen cells
- ED50 [5, 8]: 0.03 mg/kg

SMILES: FC(F)C(F)(F)Sc1nc(-c2ccccc2)c(-c2ccccc2)[nH]1 [Example 18, 4,5-Diphenyl-2-(1,1,2,2-tetrafluoroethylthio)imidazole]
- ED50 [1, 7]: 0.75 mg/kg
- ED50 [1, 6]: 0.75 mg/kg
- mean % B cells ([2]; daily oral dose 1.5 mg/kg, pooled data from 2 experiments (N = 10)): 37%
- mean % B cells ([2]; daily oral dose 15 mg/kg, pooled data from 2 experiments (N = 10)): 34%
- mean plaque forming cells per million spleen cells (N = 20) ([3]; daily oral dose 1.5 mg/kg): 197 cells per million spleen cells
- mean plaque forming cells per million spleen cells (N = 20) ([3]; daily oral dose 15 mg/kg): 320 cells per million spleen cells
- ED50 [5, 8]: 2.3 mg/kg
